The NIST ThermoML archive (doi:10.1021/acs.jced.6b00888)

Settings: 101.3 kPa, Liquid, Vibrating tube method

CN(C)CCO [2-(N,N-dimethylamino)ethanol]
Settings	mass density [kg/m3]
293.15 K	888.2
298.15 K	884
303.15 K	879.8
308.15 K	875.5
313.15 K	871.2
318.15 K	866.8
323.15 K	862.4
328.15 K	858
333.15 K	853.5
338.15 K	849
343.15 K	844.4
